Results: patent publication US9226934B2, “Anti-cancer drug” (THE UNIVERSITY OF TOKYO, priority 2008, dated 2016)

Legend:
[1] = test system: MC 38, mouse colon carcinoma cells; experiment: Subcutaneous tumor model of MC38 colon carcinoma cells in C57Bl/6 mice, tumor growth; format: in vivo; settings: agent alone i.p. on day 10, 13, 16; compared with non-treated group; afterwards growth as in non-treated group
Description: (§1) The MC 38, mouse colon carcinoma cells or B16, melanoma cells were subcutaneously injected to the back of 6-week-old C57BI/6 mice (1×10^5 cells/mouse). After the tumor diameter (longer diameter) reached 5 mm (25 to 30 mm^2) (day 10), an anti-cancer agent and/or an anti-MFG-E8 antibody were/was intraperitoneally administered to each mouse on day 10, day 13, and day 16 according to any of the following protocols. The experiments according to each protocol were performed twice. The employed anti-MFG-E8 antibody was a blocking antibody commercially available from MBL. In protocols 1 to 4, MC38 was used, and B16 melanoma was used in protocol 5.
• Gemcitabine (GEM): 4 mg/kg • Gemcitabine (GEM): 1 mg/kg • Anti-MFG-E8 antibody: 1 mg/kg • Gemcitabine (GEM): 4 mg/kg+anti-MFG-E8 antibody: 1 mg/kg • Gemcitabine (GEM): 1 mg/kg+anti-MFG-E8 antibody: 1 mg/kg Protocol 2: • CPT-11: 1 mg/kg • 5-FU: 0.1 M • Anti-MFG-E8 antibody: 1 mg/kg • CPT-11: 1 mg/kg+anti-MFG-E8 antibody: 1 mg/kg • 5-FU: 0.1 M+anti-MFG-E8 antibody: 1 mg/kg Protocol 3: • Epidermal growth factor receptor tyrosine kinase 1 (EGFR-TK1): […] • Anti-vascular endothelial growth factor receptor-2 monoclonal antibody (α-VEGFR-2Ab): 40 mg/kg • Anti-MFG-E8 antibody: 1 mg/kg Protocol 4: • Irradiation (XRT): 3 Gy/day×5 • Anti-MFG-E8 antibody: 1 mg/kg Protocol 5: • Doxorubicin (Dox): 5 mg/kg • Etoposide (Etop): 2 mg/kg • Anti-MFG-E8 antibody: 1 mg/kg (Results)

[2] = test system: B16, melanoma cells; experiment: Subcutaneous tumor model of B16 melanoma cells in C57Bl/6 mice, tumor growth; format: in vivo, mouse; settings: agent alone i.p. on day 10, 13, 16; compared with non-treated group; afterwards growth as in non-treated group
Description: as §1, with “5. […]” for “5.”

[3] = test system: Dendritic cells (BMDCs); experiment: Cytokine concentrations of BMDC culture supernatant, ELISA; format: cell-based, mouse; settings: recombinant MFG-E8 100 ng/mL or anti-MFG-E8 monoclonal antibody 20 μg/mL overnight
Description: Dendritic cells (BMDCs) were prepared through culturing myeloid progenitor cells for seven days in a GM-CSF containing medium, and treated overnight with recombinant MFG-E8 (100 ng/mL, product of R&D Systems), an anti-MFG-E8 monoclonal antibody (20 μg/mL, MBL), or a polyclonal MFG-E8 anti-serum (20 μg/mL). The IL-12, IL-23, TNF-α, and IL-10 concentrations of the culture supernatant were determined with ELISA. On day 7, BMDCs were co-cultured with PKH26 (Sigma-Aldrich)-labeled EG.7-OVA cells using a 12-well plate (ratio: 1:10), and phagocytosis was determined with flow cytometry. A similar experiment was performed using tumor cells treated for 30 minutes with an anti-MFG-E8 monoclonal antibody ([…]) before the co-culture. The effect of αvβ3 integrin-blocking antibody (RMV-7, product of Millipore) or Fc-receptor-blocking antibody (product of BD Bioscience) was also evaluated on the intake of tumor cells. Cross-presentation was tested using the following procedure. Specifically, naive CD4^+ T cells were isolated from the spleen of C57BL/6-Tg (ACTB-OVA) 916Jen/J mice using magnetic cell sorting (product of Miltenyi Biotech). The thus-isolated cells were added to the dendritic cells to which tumor cells had been loaded for 24 hours. Expression of IFN-γ within the cells was measured with flow cytometry.

[4] = test system: dendritic cells; experiment: OVA-specific T cell activity in mixed culture with treated dendritic cells, intracellular IFN-γ and IL-10; format: cell-based, mouse; settings: dendritic cells treated with MFG-E8 recombinant protein 100 μg/mL or anti-MFG-E8 antibody 20 μg/mL; 72 h; compared to control
Excerpt: The mechanisms of activation of dendritic cells and T cells through employment of the anti-MFG-E8 antibody and the anti-cancer agent, such activation having been observed in vivo, were further investigated in vitro by using a mixed culture system.
Specifically, ovalbumin (OVA) was employed as a model antigen. In a specific procedure, bone marrow cells were collected from DO11.10 (MHC class II-restricting OVA antigen transgenic mice), and differentiation to dendritic cells was induced with granulocyte-monocyte colony-stimulating factor (GM-CSF). Seven days after the initiation of the differentiation induction, the cells were treated with MFG-E8 recombinant protein (100 μg/mL) or anti-MFG-E8 antibody (20 μg/mL). Thereafter, on day 8, the thus-treated cells were pulsed with MHC class II OVA-restricting OVA peptide ([…]) or a negative control peptide (HSA) for six hours. The resultant cells were admixed with naive CD4+ positive T cells derived from syngeneic (Balb/c) mice in such an amount that the ratio of dendritic cells to CD4+ T cells was adjusted to 1:10, and the cell mixture was cultured in the presence of an anti-CD3 antibody (0.1 μg/mL). Seventy-two hours after, the activity of T cells was determined through flow cytometry, in terms of intracellular expression of IFN-γ and IL-10.

Row | Molecule | tumor growth, anti-cancer agent alone [1] | tumor growth, anti-cancer agent alone [2] | further results
1 | O=c1[nH]cc(F)c(=O)[nH]1 [5FU, 5-FU] | tumor growth was significantly suppressed for 5 to 10 days after administration | – | –
2 | Nc1ccn([C@@H]2O[C@H](CO)[C@@H](O)C2(F)F)c(=O)n1 [GEM, gemcitabine] | tumor growth was significantly suppressed for 5 to 10 days after administration | – | –
3 | COc1cc([C@@H]2c3cc4c(cc3[C@@H](O[C@@H]3O[C@@H]5CO[C@@H](C)O[C@H]5[C@H](O)[C@H]3O)[C@H]3COC(=O)[C@H]23)OCO4)cc(OC)c1O [etoposide] | – | tumor growth was significantly suppressed for 5 to 10 days after administration | –
4 | CCc1c2c(nc3ccc(OC(=O)N4CCC(N5CCCCC5)CC4)cc13)-c1cc3c(c(=O)n1C2)COC(=O)[C@]3(O)CC [CPT-11] | tumor growth was significantly suppressed for 5 to 10 days after administration | – | –
5 | COc1cccc2c1C(=O)c1c(O)c3c(c(O)c1C2=O)C[C@@](O)(C(=O)CO)C[C@@H]3O[C@H]1C[C@H](N)[C@H](O)[C@H](C)O1 [doxorubicin] | – | tumor growth was significantly suppressed for 5 to 10 days after administration | –
6 | MFG-E8: MFG-E8 recombinant protein (product of R&D Systems in Example 11) (protein, UniProt Q08431 24-387, looked up) Lactadherin: LDICSKNPCHNGGLCEEISQEVRGDVFPSYTCTCLKGYAGNHCETKCVEPLGLENGNIANSQIAASSVRVTFLGLQHWVPELARLNRAGMVNAWTPSSNDDNPWIQVNLLRRMWVTGVVTQGASRLASHEYLKAFKVAYSLNGHEFDFIHDVNKKHKEFVGNWNKNAVHVNLFETPVEAQYVRLYPTSCHTACTLRFELLGCELNGCANPLGLKNNSIPDKQITASSSYKTWGLHLFSWNPSYARLDKQGNFNAWVAGSYGNDQWLQVDLGSSKEVTGIITQGARNFGSVQFVASYKVAYSNDSANWTEYQDPRTGSSKIFPGNWDNHSHKKNLFETPILARYVRILPVAWHNRIALRLELLGC | – | – | IL-10 production by dendritic cells [3]: enhanced secretion of IL-10; IL-10 production [4]: potentiation; OVA-specific IFN-γ production [4]: suppression
